One series has as its system ZEAMX. The experiment in a line: Post-emergence herbicidal effect and crop plant compatibility, greenhouse pot test. Type of series: in vivo, Zea mays. The conditions noted are these: Zea mays, 504 h, 20 g/ha, one-leaf stage, rated visually after about 3 weeks vs untreated controls, read-out: Post-emergence effect at 20 g/ha against ZEAMX in %. The procedure, abridged:
(§1)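 Sandy loam pots, greenhouse. One-leaf stage (2–3 wk after sowing) foliar spray; WP/EC in water + 0.5% additive, 600 l/ha; 20–320 g/ha. Visual score ~3 wk, 0–100% vs untreated.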

Another series relates to TRZAS. The series is described as above. Type of series: in vivo, Triticum aestivum. As to conditions: 20 g/ha, one-leaf stage, rated visually after about 3 weeks vs untreated controls; for percent crop injury (phytotoxicity) to wheat, post-emergence at 20 g/ha: Triticum aestivum, 504 h, read-out: Post-emergence effect at 20 g/ha against TRZAS in %. Put shortly:
as §1

For a further series, the system named is ORYSA. Described as above. Type of series: in vivo, Oryza sativa. The conditions noted are these: for Post-emergence effect at 320 g/ha against ORYSA in %: one-leaf stage, rated visually after about 3 weeks vs untreated controls; for Post-emergence effect against ORYSA: visual rating about 3 weeks after treatment, crop plant. An excerpt:
• ALOMY: Alopecurus myosuroides SETVI: Setaria viridis • AVEFA: Avena fatua POLCO: Fallopia convolvulus • AMARE: Amaranthus retroflexus ECHCG: Echinochloa crus-galli • LOLRJ: Lolium rigidum STEME: Stellaria media • VERPE: Veronica persica MATIN: Tripleurospermum inodorum • DIGSA: Digitaria sanguinalis ABUTH: Abutylon threophrasti • TRZAS: Triticum aestivum VIOTR: Viola tricolor • BRSNW: Brassica napus ZEAMX: Zea mays • PHBPU: Ipomoea purpurea GLXMA: Glycine max • ORYSA: Oryza sativa HORMU: Hordeum murinum
Seeds of monocotyledonous and dicotyledonous weeds and crop plants are placed in sandy loam in plastic or organic planting pots, covered with soil and cultivated in a greenhouse under controlled growth conditions. 2 to 3 weeks after sowing, the trial plants are treated at the one-leaf stage. The compounds of the invention, formulated in the form of wettable powders (WP) or as emulsion concentrates (EC), are then sprayed onto the green parts of the plants as aqueous suspension or emulsion with addition of 0.5% additive at a water application rate of 600 l/ha (converted). After the test plants have been kept in the greenhouse under optimum growth conditions for about 3 weeks, the activity of the preparations is rated visually in comparison to untreated controls. For example, 100% activity=the plants have died, 0% activity=like control plants.
Tables 20a to 38c below show the effects/crop compatibilities of selected compounds of the general formula (I) on various harmful plants at an application rate corresponding to 20 to 320 g/ha, which were obtained by the trial procedure specified above.

In another series the test system is ABUTH. The experiment in a line: Post-emergence herbicidal effect, greenhouse pot test. Type of series: in vivo, Abutilon theophrasti. As to conditions: visual rating about 3 weeks after treatment. The procedure, abridged:
(§2)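 Greenhouse pot plants in sandy loam receive a one-leaf-stage spray at 20 to 320 g/ha. Activity is assessed visually around 3 weeks afterwards on a 0–100% scale, where 100% means the plants have died.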

For another series, the system named is ALOMY. The description is as above. Type of series: in vivo, Alopecurus myosuroides. As to conditions: 320 g/ha, visual rating about 3 weeks after treatment; for pest or weed control at 320 g/ha: Alopecurus myosuroides, 504 h, read-out: Post-emergence effect against ALOMY. Put shortly: as §2
The test system of the next series is AMARE. The description is as above. Type of series: in vivo, Amaranthus retroflexus. The conditions noted are these: visual rating about 3 weeks after treatment; for pest or weed control at 320 g/ha: Amaranthus retroflexus, 504 h, read-out: Post-emergence effect against AMARE. Put shortly:
as §2

A further series has as its system AVEFA. The series is described as above. Type of series: in vivo, Avena fatua. The conditions noted are these: visual rating about 3 weeks after treatment. The procedure, abridged:
as §2

Another series concerns DIGSA. The series is described as above. As to conditions: visual rating about 3 weeks after treatment; for pest or weed control at 320 g/ha: Digitaria sanguinalis, 504 h, read-out: Post-emergence effect against DIGSA. Type of series: in vivo, Digitaria sanguinalis. Put shortly:
as §2

The test system of the next series is ECHCG. The description is as above. Type of series: in vivo, Echinochloa crus-galli. As to conditions: for pest or weed control at 80 g/ha / pest or weed control at 320 g/ha: Echinochloa crus-galli, 504 h, read-out: Post-emergence effect against ECHCG in %. Put shortly: as §2
In a further series the test system is LOLRI. The series is described as above. Type of series: in vivo, Lolium rigidum. As to conditions: 320 g/ha; for pest or weed control at 320 g/ha: Lolium rigidum, 504 h, read-out: Post-emergence effect against LOLRI in %. The procedure, abridged: as §2
The subject of another series is SETVI. Described as above. Type of series: in vivo, Setaria viridis. Put shortly:
as §2

In a further series the test system is MATIN. The description is as above. Type of series: in vivo, Tripleurospermum inodorum. The procedure, abridged:
as §2

The test system of a further series is PHBPU. The description is as above. Type of series: in vivo, Ipomoea purpurea. Put shortly:
as §2

The subject of the next series is POLCO. The description is as above. Type of series: in vivo, Fallopia convolvulus. The procedure, abridged:
as §2

In the next series the test system is VERPE. The description is as above. Type of series: in vivo, Veronica persica. Put shortly: as §2
The subject of a further series is VIOTR. The series is described as above. Type of series: in vivo, Viola tricolor. The procedure, abridged: as §2
[1] abbreviates: Abutilon theophrasti, 504 h, 320 g/ha, read-out: Post-emergence effect against ABUTH.
Where [2] appears, read: Avena fatua, 504 h, 320 g/ha, read-out: Post-emergence effect against AVEFA.
[3] abbreviates: Setaria viridis, 504 h, 320 g/ha, read-out: Post-emergence effect against SETVI in %.

With `COC(=O)C(OC)Oc1nn(-c2cnccn2)c(-c2ccc(F)nc2)c1Cl` (stereo not drawn) [Example I-35], in the series on ZEAMX, the plant injury at 20 g/ha came to 20%. Also, the percent crop injury (phytotoxicity) to wheat, post-emergence at 20 g/ha in the series with TRZAS worked out at 20%. Besides, the “Post-emergence effect at 320 g/ha against ORYSA in %” value in the series on ORYSA was found to be 10%. In addition, the pest or weed control at 320 g/ha was 80% in the series on ABUTH (setting [1]); 90% in the series with ALOMY; 80% with AMARE (320 g/ha); 80% with AVEFA (setting [2]); 80% in the series on DIGSA (320 g/ha); 90% with ECHCG (320 g/ha). The pest or weed control at 320 g/ha in the series on LOLRI and in the series with SETVI (setting [3]) was 80% each time. Further, the pest or weed control at 80 g/ha in the series with ECHCG (80 g/ha) stood at 80%.

For the molecule `COC(=O)C(OC)Oc1nn(-c2cccc(Cl)c2F)c(-c2cncc(F)c2)c1Br` (stereo not drawn) [Example I-17], the “Post-emergence effect at 20 g/ha against TRZAS in %” value in the series on TRZAS was 10%. The “Post-emergence effect against ORYSA” value is given as 0% in the series with ORYSA (20 g/ha) and 20% in the series on ORYSA (80 g/ha). The results for the “Post-emergence effect against ABUTH” value in the series on ABUTH (20 g/ha), in the series with ABUTH (80 g/ha) and with ABUTH (320 g/ha) were 80%, 90% and 90%, respectively. Further, the “Post-emergence effect against ALOMY” value in the series on ALOMY is recorded as 90%. Also, the “Post-emergence effect against AMARE” value in the series with AMARE (20 g/ha), in the series with AMARE (80 g/ha) and in the series on AMARE (320 g/ha) was 80% each time. In addition, the “Post-emergence effect against AVEFA” value in the series with AVEFA (320 g/ha) was 90%. In addition, the “Post-emergence effect against DIGSA” value in the series on DIGSA (80 g/ha) was 80%; in the series on DIGSA (320 g/ha) it was 90%. The “Post-emergence effect against ECHCG in %” value with ECHCG (80 g/ha) amounted to 80%; with ECHCG (320 g/ha), 90%. For the same molecule, in the series on LOLRI, the “Post-emergence effect against LOLRI in %” value was found to be 80%. The “Post-emergence effect against MATIN in %” value in the series on MATIN (20 g/ha), in the series with MATIN (80 g/ha) and in the series with MATIN (320 g/ha) was 80% throughout. In addition, the “Post-emergence effect against PHBPU in %” value with PHBPU (20 g/ha), in the series with PHBPU (80 g/ha) and in the series on PHBPU (320 g/ha) was 90% in each case. For the same molecule, the “Post-emergence effect against POLCO in %” value with POLCO (80 g/ha) and with POLCO (320 g/ha) was 80% throughout. Also, the “Post-emergence effect against SETVI in %” value came out at 80% with SETVI (80 g/ha) and 90% in the series with SETVI (320 g/ha). For the same molecule, the “Post-emergence effect against VERPE in %” value turned out to be 80% in the series with VERPE (20 g/ha), 80% with VERPE (80 g/ha) and 90% with VERPE (320 g/ha). The “Post-emergence effect against VIOTR in %” value with VIOTR (20 g/ha), in the series on VIOTR (80 g/ha) and in the series on VIOTR (320 g/ha) was 90% in each case.

Consider `COC(=O)C(OC)Oc1nn(-c2cc(F)ccc2F)c(-c2cncc(F)c2)c1I` (stereo not drawn) [Example I-28], for which, in the series on TRZAS, the percent crop injury (phytotoxicity) to wheat, post-emergence at 20 g/ha was found to be 20%. The “Post-emergence effect at 320 g/ha against ORYSA in %” value in the series on ORYSA is 20%. Also, the pest or weed control at 80 g/ha is 90% in the series on ABUTH (Abutilon theophrasti, 504 h, 80 g/ha, read-out: Post-emergence effect against ABUTH); 80% in the series with AVEFA (Avena fatua, 504 h, 80 g/ha, read-out: Post-emergence effect against AVEFA); 90% in the series with ECHCG (80 g/ha); 90% in the series with MATIN (Tripleurospermum inodorum, 504 h, 80 g/ha, read-out: Post-emergence effect against MATIN in %); 90% with PHBPU (Ipomoea purpurea, 504 h, 80 g/ha, read-out: Post-emergence effect against PHBPU in %); 80% in the series on SETVI (Setaria viridis, 504 h, 80 g/ha, read-out: Post-emergence effect against SETVI in %). Also, in the series with VIOTR (Viola tricolor, 504 h, 80 g/ha, read-out: Post-emergence effect against VIOTR in %), the pest or weed control at 80 g/ha was 90%. In addition, the pest or weed control at 320 g/ha with ABUTH (setting [1]) is 100%; in the series with ALOMY, 90%; in the series with AMARE (320 g/ha), 80%; in the series with AVEFA (setting [2]), 90%; in the series with DIGSA (320 g/ha) it was 80%; with ECHCG (320 g/ha), 90%. Also, the pest or weed control at 320 g/ha in the series with LOLRI was 90%; in the series on MATIN (Tripleurospermum inodorum, 504 h, 320 g/ha, read-out: Post-emergence effect against MATIN in %), 90%; in the series on PHBPU (Ipomoea purpurea, 504 h, 320 g/ha, read-out: Post-emergence effect against PHBPU in %), 90%; with POLCO (Fallopia convolvulus, 504 h, 320 g/ha, read-out: Post-emergence effect against POLCO in %), 80%; in the series with SETVI (setting [3]), 90%; in the series on VERPE (Veronica persica, 504 h, 320 g/ha, read-out: Post-emergence effect against VERPE in %), 80%. Moreover, the pest or weed control at 320 g/ha in the series on VIOTR (Viola tricolor, 504 h, 320 g/ha, read-out: Post-emergence effect against VIOTR in %) is 90%. The pest or weed control at 20 g/ha was 80% with MATIN (Tripleurospermum inodorum, 504 h, 20 g/ha, read-out: Post-emergence effect against MATIN in %); 80% in the series with PHBPU (Ipomoea purpurea, 504 h, 20 g/ha, read-out: Post-emergence effect against PHBPU in %); 80% in the series on VIOTR (Viola tricolor, 504 h, 20 g/ha, read-out: Post-emergence effect against VIOTR in %).
